Experiments:
[1] = test system: human-derived tracheal/bronchial epithelial cells (EpiAirway™ Tissue model system); assay: Cytotoxicity (LDH assay), EpiAirway tissue model; type: cell-based
Procedure: The amount of cell death was assayed by measuring the release of lactate dehydrogenase (LDH) from the cells into the apical medium using a CytoTox 96 Cytotoxicity Assay Kit (Promega Corp., Madison, Wis.). One percent Octylphenolpoly (ethyleneglycolether)×(Triton X-100™) diluted in phosphate buffered saline (PBS) causes 100% lysis in cultured cells and served herein as a positive control for the LDH assay. Following the one hour incubation period with a test formulation (refer to Table 4 in Example 2 for details of test formulations), the total liquid volume of each insert was brought to a final volume of 200 μl with culture medium. The apical medium was then mixed by pipetting four times with a multichannel pipette set to a 100 μl volume. After mixing, a 100 μl sample from the apical side of each insert was transferred to a new 96-well plate. The apical media samples were sealed with a plate sealer and stored at room temperature for same day analysis or stored overnight at 4° C. for analysis the next day. To measure LDH levels, 5 μl of the 100 μl apical media sample was diluted in 45 μl DPBS in a new 96-well plate. Fresh, cell-free culture medium will be used as a blank. Fifty microliters of substrate solution was added to each well and incubated for 30 minutes at room temperature away from direct light. Following the 30 minute incubation, 50 μl of stop solution was added to each well. Optical density (OD) was measured at 490 nm with a uQuant absorbance plate reader from Biotek Instruments. The measurement of LDH release into the apical media indicates relative cytotoxicity of the samples. Percent cytotoxicity for each test formulation was calculated by subtracting the measured absorbance of the PBS control (basal level of LDH release) from the measured absorbance of the individual test formulation and then dividing that value by the measured absorbance for the 1% Triton X-100™ positive control, multiplied by 100.
The formula used to calculate percent cytotoxicity is as follows: [formula] Osmolality
Of the total 300 μl volume for each test formulation, only a 20 μl sample was applied to the human-derived tracheal/bronchial epithelial cells (EpiAirway™ Tissue model system) in order to assess the effect each test formulation had on TER, LDH and sample permeation.

[2] = Chemical stability of PN159 in solution (stability indicating HPLC); type: physicochemical; details: for loss of native PN159: 25° C.
Procedure: The chemical stability of the PN159 was determined under therapeutically relevant storage conditions. A stability indicating HPLC method was employed. Solutions (50 mM) were stored at various pH (4.0, 7.3, and 9.0) and temperature (5° C., 25° C., 35° C., 40° C., and 50° C.) conditions. Samples at pH 4 contained 10 mM citrate buffer. Samples at pH 7.3 and 9.0 contained 10 mM phosphate buffer. […] For example, at 5° C. and pH 4.0 or pH 7.3, there was essentially 100% recovery of PN159 for six month storage. […] The pH range of 4.0 to 7.3 and the temperature range of refrigerated to ambient are most relevant for intranasal formulations.

[3] = Intranasal PYY(3-36) pharmacokinetics in rabbits with various TJMPs (Example 10); type: in vivo, New Zealand White rabbits; details: rabbit
Text: The tubes were chilled until […].

[4] = test system: in vitro epithelial tissue model; assay: Cell viability (MTT assay), in vitro epithelial tissue model; details: galantamine lactate 40 mg/ml and PN159 at all concentrations tested (25, 50, 100 μM)
[5] = PYY(3-36) in plasma, 205 μg/kg intranasal with the named TJMP (concentration per Table 11, 50-1000 μM) or PBS, mean

With `CC(C)C[C@H](NC(=O)[C@H](C)NC(=O)[C@H](CCCCN)NC(=O)[C@H](CC(C)C)NC(=O)[C@H](C)NC(=O)[C@H](CC(C)C)NC(=O)[C@H](CCCCN)NC(=O)[C@H](CC(C)C)NC(=O)[C@H](C)NC(=O)[C@H](CC(C)C)NC(=O)[C@@H](N)CCCCN)C(=O)N[C@@H](CCCCN)C(=O)N[C@@H](C)C(=O)N[C@@H](C)C(=O)N[C@@H](CC(C)C)C(=O)N[C@@H](CCCCN)C(=O)N[C@@H](CC(C)C)C(=O)N[C@@H](C)C(N)=O` [PN159] the LDH ([1]; 25 μM peptide, 1 h incubation, % of 1% Triton X-100 control) was 31%, the “cytotoxicity as measured by LDH” value ([1]; PN159 (25, 50, 100 μM) with galantamine lactate 40 mg/ml) was “low” and the “loss of native PN159” value ([2]; pH 4, after six months) was 7%. The “loss of native PN159” value ([2]; pH 7, after six months) was 26%, the “chemical stability of PN159” value ([2]; pH 9 and/or elevated temperature, e.g., 40 to 50° C.) was “rapid deterioration” and the “In Vivo Tier Ranking” value ([3]; PYY(3-36) 205 μg/kg intranasal, TJMP concentration per Table 11: PN159 50 μM, PN161, PN202 100 μM, PN27 250 μM, PN58, PN73, PN228 500 μM, PN183, PN556 1000 μM) was “I”. For the same compound, the AUCinf [3, 5] was 1.55e+06 pg·min/mL, the AUClast [3, 5] was 1.52e+06 pg·min/mL and the Cmax [3, 5] was 30.2 ng/mL. For the same compound, the T1/2 [3, 5] was 30.2 min, the Tmax [3, 5] was 17.0a min and the “Cell viability (MTT)” value [4] was over 80%.

— US20070154449A1, “TIGHT JUNCTION MODULATING PEPTIDES FOR ENHANCED MUCOSAL DELIVERY OF THERAPEUTIC COMPOUNDS” (Nastech Pharmaceutical Company Inc., priority 2005, published 2007)
